In this assay the target is T1, hPTP1B1-400 (Homo sapiens, UniProt P18031).
T1 sequence (P18031 1-400): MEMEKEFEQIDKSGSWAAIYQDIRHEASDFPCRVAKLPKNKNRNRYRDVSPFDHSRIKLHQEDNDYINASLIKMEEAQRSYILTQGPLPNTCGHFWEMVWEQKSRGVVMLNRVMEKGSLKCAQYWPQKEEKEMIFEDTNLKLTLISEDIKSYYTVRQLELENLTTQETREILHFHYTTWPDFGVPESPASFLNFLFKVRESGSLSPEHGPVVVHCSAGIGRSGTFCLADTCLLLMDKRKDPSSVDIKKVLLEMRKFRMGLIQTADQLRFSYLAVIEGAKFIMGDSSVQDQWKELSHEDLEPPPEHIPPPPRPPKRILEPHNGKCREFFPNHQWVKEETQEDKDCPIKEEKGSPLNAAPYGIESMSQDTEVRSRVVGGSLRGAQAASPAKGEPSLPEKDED
Description: PTP1B inhibition assay (spectrophotometric, 4-nitrophenyl phosphate). The class given is biochemical. The conditions noted are these: for ΔA, activity difference between UA and the compound: absolute pIC50 difference against ursolic acid. As for the experimental part: The inhibitory activity was determined as a percentage compared to the blank (Buffer) according to the following equation: %InhibitionPTP1B=1−A405s/A405b×100%, (1) where A405(s) is the ΔA of the sample (At20 − At0), A405(b) is the ΔA of the blank obtained in the same manner as that of the sample. Using the data obtained, the enzyme inhibition curve was plotted, for which the average percentage of inhibition was plotted as a function of the inhibitor concentration.

[1] abbreviates: Hill1 model fit, Origin 8.0, axis C (mM), read-out: k of the IC50 curve.
Setting [2] is: enzyme 66 nM, 4-NP 0.125 mM, Tris-HCl pH 6.8, 20 min, room temperature, read-out: IC50.
Where [3] appears, read: negative log of the IC50 in Molar.
The mark [4] stands for this setting: DoseResp model fit, Origin 8.0, axis C (mM), read-out: LOGx0 of the IC50 curve.
Where [5] appears, read: negative log of the IC50 in Molar, read-out: pIC50 (converted).

Values joined by “and” are separate entries in the source; they are usually repeats but may differ in a detail not shown here. Equal values may be shown once. Read-outs that look alike come from different tables or passages of the source.

Usually pIC50 stands for −log10 of the IC50, conventionally taken in molar units. On to “4-Hydroxy-3,3',5-trimetoxybibencyl [Compound 77]”, for which the “ΔA, activity difference between UA and the compound” value was 1.0. Moreover, the IC50 under setting [1] was 0.221 ± 0.147 mM. The IC50 under setting [2] came out at 0.221 ± 0.0001 mM. This molecule had a pIC50 under setting [3] of 3.66.
Take 5,7-Diacetylchrysin [Compound 54]: the “ΔA, activity difference between UA and the compound” value was 1.2. The IC50 under setting [1] worked out at 0.362 ± 0.0378 mM. The IC50 under setting [2] was found to be 0.3618 ± 4e-05 mM. Under setting [3], the pIC50 worked out at 3.44.
As for 7-Methylluteolin [Compound 50], the “ΔA, activity difference between UA and the compound” value came out at 1.3. Moreover, the IC50 under setting [4] came to 0.435 ± 0.00856 mM. Besides, the IC50 under setting [2] was determined as 0.4349 ± 8e-06 mM. Moreover, the pIC50 under setting [3] was determined as 3.36.
Turning to `COc1cc(OC2OC(CO)C(O)C(O)C2O)c2c(-c3ccc(O)c(O)c3)cc(=O)oc2c1` [Compound 2, 5-O-(β-D-Glucopyranosyl)-7-methoxy-3'-4'-dihydroxy-4-phenylcoumarin], the “ΔA, activity difference between UA and the compound” value worked out at 0.3. For the same molecule, the “%I” value (0.02 mM compound) amounted to 42.48 ± 1.16%. Moreover, the “%I” value (1 mM compound) came to 95.13 ± 0.54%. The same molecule returned an IC50 (IC50 (μM), enzyme 66 nM, 4-NP 0.125 mM, Tris-HCl pH 6.8, 20 min, room temperature) of 0.0404 ± 2e-05 mM. The IC50 (LOGx0 of the IC50 curve, DoseResp model fit, Origin 8.0, axis C (mM)) was 0.0404 ± 0.0232 mM. Also, the IC50 (pIC50, negative log of the IC50 in Molar) was 0.0407 mM.
With `CC(=CCCC(C)C1CCC2(C)C3=CCC4C(C)(C)C(=O)CCC4(C)C3CCC12C)C(=O)O` (centres unmarked) [Compound 4, Masticadienonic acid], the “ΔA, activity difference between UA and the compound” value is recorded as 0.4. For the same molecule, the IC50 under setting [4] came out at 0.0491 ± 0.00475 mM. Also, the IC50 under setting [2] was determined as 0.0491 ± 4e-06 mM. In addition, under setting [5], the IC50 is 0.049 mM.
For `COc1cc(-c2cc(=O)c3c(O)c(O)c(OC)cc3o2)ccc1O` [Compound 5, 4',5,6-Trihydroxy-3',7-dimethoxyflavone], the “ΔA, activity difference between UA and the compound” value was 0.42 and 0.4. Besides, the IC50 under setting [4] is 0.0573 ± 0.0213 mM. Further, the IC50 under setting [2] came out at 0.0573 ± 2e-05 mM. Besides, the IC50 under setting [5] was 0.0575 mM.
Turning to `C=C(C)[C@H]1COc2c(C)cc3oc4c(C[C@H](O)C(C)(C)O)ccc(O)c4c(=O)c3c2[C@@H]1O` [Compound 7, Tajixanthone hydrate], the “ΔA, activity difference between UA and the compound” value worked out at 0.6. Besides, the IC50 under setting [4] was 0.0832 ± 0.00124 mM. For the same molecule, the IC50 under setting [2] is 0.0832 ± 1e-06 mM. The IC50 under setting [5] is 0.0832 mM.
Consider `O=C(OCC1OC(Oc2c(-c3ccc(O)c(O)c3)oc3cc(O)cc(O)c3c2=O)C(O)C(O)C1O)c1ccccc1` [Compound 8, Quercetin-3-O-(6''-benzoyl)-β-D-galactoside], for which the “ΔA, activity difference between UA and the compound” value is on record as 0.6. Moreover, the IC50 under setting [4] came out at 0.0888 ± 0.0504 mM. Besides, under setting [2], the IC50 stood at 0.0888 ± 5e-05 mM. The IC50 under setting [5] was 0.0891 mM.
In the same order, the values of `COc1cc(C)c2c(=O)c3c(O)cc(OC)cc3oc2c1` [Compound 9, Lichexanthone] are 0.6, 0.0888 ± 0.00531 mM, 0.0888 ± 5e-06 mM and 0.0891 mM.
`CC(C)(O)C(O)C1CC(C2CCC3(C)C4=CCC5C(C)(C)C(=O)CCC5(C)C4CCC23C)C(O)O1` (centres unmarked) [Compound 10, Melianodiol]: the “ΔA, activity difference between UA and the compound” value came out at 0.6. Moreover, the IC50 under setting [2] is 0.0921 ± 4e-05 mM. Besides, under setting [5], the IC50 is 0.0912 mM.
With `CC(C)(O)CCC(=O)[C@](C)(O)[C@H]1[C@H](O)C[C@@]2(C)[C@@H]3CC=C4[C@@H](C[C@H](O)[C@@H](O[C@@H]5O[C@H](CO)[C@@H](O)[C@H](O)[C@H]5O)C4(C)C)[C@]3(C)C(=O)C[C@]12C` [Compound 14, 3-O-β-D-Glucopyranosyl-23,24-dihydrocucurbitacin F], the “ΔA, activity difference between UA and the compound” value is 1.2. Besides, the IC50 under setting [4] worked out at 0.358 ± 0.0127 mM. Besides, under setting [2], the IC50 is 0.3583 ± 1.2e-05 mM. This molecule displayed a pIC50 under setting [3] of 3.45.
With `CC(=O)OC(C)(C)/C=C/C(=O)[C@](C)(O)[C@H]1[C@H](O)C[C@@]2(C)[C@@H]3CC=C4[C@@H](C[C@H](O[C@@H]5O[C@H](CO)[C@@H](O)[C@H](O)[C@H]5O)C(=O)C4(C)C)[C@]3(C)C(=O)C[C@]12C` [Compound 15, Arvenin I], the “ΔA, activity difference between UA and the compound” value turned out to be 1.4. Also, the IC50 under setting [1] was 0.564 ± 0.041 mM. For the same molecule, the IC50 under setting [2] worked out at 0.5643 ± 4.1e-05 mM. In addition, the pIC50 under setting [3] is reported as 3.25.
As for `CC(=O)OC[C@H]1O[C@@H](Oc2cc(O)cc3oc(=O)cc(-c4ccc(O)cc4)c23)[C@H](O)[C@@H](O)[C@H]1O` [Compound 18, 6''-O-Acetyl-5-O-β-D-galactopyranosyl-7,4'-dihydroxy-4-phenylcoumarin], the “ΔA, activity difference between UA and the compound” value is listed as 1.2. In addition, the IC50 under setting [1] was determined as 0.349 ± 0.0341 mM. Also, the IC50 under setting [2] came to 0.3486 ± 3e-05 mM. Besides, the pIC50 under setting [3] came to 3.46.
As to `Oc1cccc(CCc2ccc3c(c2)OCO3)c1` [Compound 25], the “ΔA, activity difference between UA and the compound” value is reported as 1.5. For the same molecule, the IC50 under setting [4] came to 0.662 ± 0.134 mM. Further, the IC50 under setting [2] is 0.6621 ± 0.00013 mM. In addition, the pIC50 under setting [3] was found to be 3.18.
Regarding `C=C1C(=O)O[C@@H]2C[C@@]3(C)CCC=C(C)[C@@H]3C[C@H]12` [Compound 32, Isoalloalantolactone], the “ΔA, activity difference between UA and the compound” value came to 1.3. In addition, the IC50 under setting [4] came to 0.443 ± 0.0513 mM. Moreover, the IC50 under setting [2] is 0.4432 ± 5e-05 mM. In addition, the pIC50 under setting [3] was found to be 3.35.
Turning to `COc1cc(O)cc(CCc2cccc(O)c2)c1` [Compound 34, Batatasin III], the “ΔA, activity difference between UA and the compound” value worked out at 1.1. In addition, the IC50 under setting [4] turned out to be 0.247 ± 0.0675 mM. Moreover, under setting [2], the IC50 turned out to be 0.2474 ± 7e-05 mM. The IC50 under setting [5] was 0.245 mM.
For `CN1C(=O)c2ccccc2-n2c(nc3ccccc3c2=O)[C@@H]1Cc1ccccc1` [Compound 40, Benzomalvin A], the “ΔA, activity difference between UA and the compound” value is reported as 1.3. For the same molecule, the IC50 under setting [4] was found to be 0.424 ± 0.00536 mM. In addition, the IC50 under setting [2] was determined as 0.4242 ± 5e-06 mM. In addition, the IC50 under setting [5] was 0.427 mM.
Regarding `COc1c(O)cc2cc(OC)c3cc(O)ccc3c2c1OC` [Compound 41, Gymnopusin], the “ΔA, activity difference between UA and the compound” value is on record as 1.3. Also, the IC50 under setting [4] is 0.431 ± 0.0111 mM. In addition, the IC50 under setting [2] was 0.4314 ± 1e-05 mM. In addition, under setting [5], the IC50 is 0.427 mM.
Regarding `CCCCCCCCCCCCCCCCCCCCOC(=O)C=Cc1ccc(O)c(OC)c1` [Compound 43, Eicosyl 4-hydroxy-3-methoxy-cinnamate], the “ΔA, activity difference between UA and the compound” value worked out at 1.5. Also, the IC50 under setting [4] worked out at 0.648 ± 0.131 mM. Further, the IC50 under setting [2] is 0.6483 ± 0.00013 mM. In addition, the IC50 under setting [5] is 0.646 mM.
On to `COc1ccc([C@H]2OC[C@H]3[C@@H]2CO[C@@H]3c2ccc3c(c2OC)OCO3)cc1OC` [Compound 47, 2'-Methoxykobusin], for which the “ΔA, activity difference between UA and the compound” value amounted to 0.8. The IC50 under setting [1] is 0.125 ± 0.00914 mM. Besides, under setting [2], the IC50 was determined as 0.1253 ± 9e-06 mM. This molecule also registered a pIC50 under setting [3] of 3.90.
For `C/C(=C/CC[C@H](C)[C@@H]1CC[C@]2(C)C3=CC[C@H]4C(C)(C)[C@H](O)CC[C@]4(C)[C@H]3CC[C@@]12C)C(=O)O` [Compound 49, 3α-Hydroxymasticadienonic acid], the “ΔA, activity difference between UA and the compound” value worked out at 0.8. Further, under setting [4], the IC50 worked out at 0.151 ± 0.0053 mM. Under setting [2], the IC50 stood at 0.1507 ± 5e-06 mM. For the same molecule, under setting [3], the pIC50 is 3.82.
Consider `O=c1c(O[C@@H]2O[C@H](CO)[C@H](O)[C@H](O)[C@H]2O)c(-c2ccc(O)cc2)oc2cc(O)cc(O)c12` [Compound 51, Trifolin], for which the “ΔA, activity difference between UA and the compound” value amounted to 1.6. The IC50 under setting [4] stood at 0.859 ± 0.0259 mM. In addition, under setting [2], the IC50 came out at 0.859 ± 0.0003 mM. Under setting [5], the IC50 was 0.851 mM.
